According to article PMC12775124, “CUL4A-DDB1-DCAF10 is an N-recognin for N-terminally acetylated Src kinases” (Nature Communications, 2026):

System: GST-DCAF10
Experiment: Streptavidin pull-down of GST-DCAF10 with biotinylated Nt-peptides
Format: binding, human
Details: for Binding to GST-DCAF10 (in words) / Nt-free reduction compared to Nt-Ac: 0.5 µM GST-DCAF10, 5 µM peptide, 1 h RT, WB; for Nt-free reduction compared to Nt-Ac: mean ± s.d., n = 3 independent binding assays
Procedure: To confirm direct interactions between peptides and DCAF10, we performed pull-down assays using bead-bound Nt-peptide variants incubated with purified full-length GST-DCAF10 or GST as a negative control (Fig. 2m–p and Supplementary Fig. 4a).
230 of 1:100), and desalted/concentrated on C18 reversed phase stage tips as previously
MS measurements settings are stated in MS measurements and raw file
BL21(DE3) cells (Thermo Fisher Scientific,
240 agar) plate containing 100 μg/mL ampicillin and 34 μg/mL chloramphenicol, then
Terrific broth (TB) medium (24 g/L yeast extract,
243 20 g/L tryptone, glycerol 4 mL/L, 100 mL/L phosphate buffer containing 0.17 M KH2PO4
244 and 0.72 M K2HPO4) was used to prepare a 1:100 dilution of the starter culture, and OD600
At OD600 = 1, protein induction was initiated by adding 1 mM
247 day, pellets were homogenized and lysed in glycerol lysis buffer (20 mM Tris-HCl pH
Lysis was performed on ice for 30 min, followed by
250 sonication (7 × 20 sec pulses with 20 sec breaks on ice) using a Bandelin sonoplus
Lysates were centrifuged at 4°C for 1 h
253 medium culture was lysed in 20 mL of supernatant (collected in 20 × 1 mL tubes). GST
255 agarose bead; Thermo Fisher Scientific, Waltham, MA, USA). For each 1 mL of
100 μL of GST magnetic beads
257 were washed twice with 500 μL of wash buffer (125 mM Tris-HCl pH 7.4, 150 mM NaCl,
The lysis supernatant was diluted 1:1 with
259 wash buffer, and incubated with the beads on an end-over-end rotator for 1 h at 25°C.
260 After incubation, the supernatant was removed, and the beads were washed twice with
Protein elution was then performed by incubating
263 pH 7.4, 250 mM NaCl, 0.3% Triton X-100) for 30 min at 25°C on an end-over-end rotator.
265 under the same conditions. Elution fractions were pooled and concentrated by
266 centrifugation (4°C, 25 min, 4500 rpm) using a 30 kDa cut-off concentrator (Merck
267 Millipore, #UFC803008, Darmstadt, Germany). Purified proteins were analyzed by
268 colloidal Coomassie stain, WB and MS.
270 Streptavidin pull-downs with GST-DCAF10 and biotinylated peptides
271 Streptavidin magnetic beads (DynabeadsTM MyOneTM Streptavidin T1; Thermo Fisher
272 Scientific, Waltham, MA, USA) were washed twice with 500 μL of wash buffer (125 mM
273 Tris-HCl pH 7.4, 150 mM NaCl, 0.1% Triton X-100). An excess of peptides was added
274 (to ensure full occupancy of the beads) and incubated for 30 min at RT. After peptide
275 binding, beads were again washed three times with 500 μL of wash buffer. The pull-down
276 was then performed in a 100 μL reaction volume with final concentrations of 0.5 µM
277 GST-DCAF10 and 5 µM peptide. GST-DCAF10 or GST alone (as a control) was added
278 to the peptide-streptavidin beads and incubated on a rotator for 1 h at RT. After incubation,
279 the beads were washed three times with 500 μL of wash buffer and resuspended in 4x
280 Laemmli buffer. 1/5 of the input (GST-DCAF10 and GST) and 9/10 of the sample were
281 loaded on a 10% SDS gel and blotted with anti-GST and anti-DCAF10 antibodies, while
282 1/10 was loaded on a 15% SDS gel and blotted with anti-streptavidin antibody to assess
283 equal peptide loading.
285 Streptavidin Sepharose High Performance, GE Healthcare, Chicago, IL, USA) were used.
286 After washing with a high salt wash buffer without detergents (125 mM Tris-HCl pH 7.4,
287 400 mM NaCl), an excess of peptides was added and incubated for 30 min at RT. For each
288 reaction, 10 µL of slurry beads were used. After peptide-binding, beads were again
289 washed once with a high salt wash buffer without detergents and twice with binding buffer
290 without detergents (125 mM Tris-HCl pH 7.4, 150 mM NaCl). The pull-downs were
291 performed in a 100 μL reaction volume in binding buffer without detergents with a final
292 concentration of 0.5 µM GST-DCAF10 and incubated rotating for 1 h at RT. After
293 incubation, the beads were washed five times with 500 μL of high salt wash buffer without […]

In the case of “GSNKSKPKDAKK [Ac-Src, Nt-peptide of Src, Nt-acetylated]”, the “Lower binding in pull-downs” value (compared with Lyn and Fyn) is reported as ~ 30%.
“GCIKSKGKDSKK [Ac-Lyn, Nt-peptide of Lyn (aa 1–10 + KKK-biotin), Nt-acetylated]” was tested, and the “Binding to GST-DCAF10 (in words)” value (listed as Nt-acetylated Lyn) was “bound robustly to GST-DCAF10”.
In the case of “GCVQCKDKEAKK [Nt-free Fyn, Nt-peptide of Fyn, Nt-free]”, the “Binding to GST-DCAF10 (in words)” value is reported as “bound only weakly” and the “Nt-free reduction compared to Nt-Ac” value is reported as 82.5 ± 10.8%.
With “GCIKSKGKDSKK [Nt-free Lyn, Nt-peptide of Lyn (aa 1–10 + KKK-biotin), Nt-free]” the “Binding to GST-DCAF10 (in words)” value (listed as Lyn Nt-free) was “bound only weakly” and the “Nt-free reduction compared to Nt-Ac” value was 88.5 ± 14.7%.
